As usually defined, the clearance is the rate of elimination divided by the concentration. Read a high clearance as a high capacity for elimination. As a reminder, the bioavailability is the share of a dose that reaches the circulation, judged against a reference dose that is usually intravenous. A higher bioavailability goes with good availability.

A short description of data set [1]: Clearance in rat at 2 mg/kg, iv. The class given is ADME, organism-based. Also noted: dose 2 mg/kg, route intravenous. As to conditions: in vivo.
The nature of data set [2]: Oral bioavailability in rat at 10 mg/kg. It is filed as ADME, organism-based. As to conditions: in vivo.

With `O=C([C@@H]1CNC[C@]12CCCc1nc(Cl)ccc12)N1CC[C@@H](c2ccccc2)C[C@H]1C1CCCCC1`, the clearance in data set [1] was found to be 15 mL/min/kg. In data set [2], this compound displayed a bioavailability of 44%.

The values above are taken from ChEMBL document CHEMBL1933035, “Discovery of pyrrolidine-based β-secretase inhibitors: lead advancement through conformational design for maintenance of ligand binding efficiency” (Bioorg Med Chem Lett, 2012).
